Structures can show the parent of a compound that is named as a salt. Where two headings read alike, the source gives them in different places.
Experiments:
[1] = target: T1, LXR alpha (Homo sapiens, UniProt Q13133); test: LanthaScreen TR-FRET LXR alpha Coactivator Assay (cell-free binding)
T1 construct: LXR alpha or beta LBD-GST; purchased ThermoFisher PV4655
T1 sequence (Q13133 209-447 limits assumed): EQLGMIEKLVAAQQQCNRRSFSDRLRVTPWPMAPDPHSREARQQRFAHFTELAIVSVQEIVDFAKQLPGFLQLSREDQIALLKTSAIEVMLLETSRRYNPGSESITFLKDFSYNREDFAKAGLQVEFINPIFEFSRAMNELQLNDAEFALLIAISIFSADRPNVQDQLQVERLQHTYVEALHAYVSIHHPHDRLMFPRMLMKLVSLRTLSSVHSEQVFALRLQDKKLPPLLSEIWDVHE
Experimental: (§1) To evaluate the ability of novel LXR agonists to bind to the LXR alpha and beta receptor, a cell-free binding assay was performed using a LanthaScreen TR-FRET LXR alpha Coactivator Assay Kit (ThermoFisher, Cat # PV4655) and LXR beta Coactivator Assay Kit (ThermoFisher, Cat # PV4658). The assay was performed according to the manufacturer's instructions. Briefly, a 3-fold serial dilution of LXR agonists were prepared in 100% DMSO starting at 100 μM (100× of final). Serial dilutions were further diluted 50-fold in nuclear receptor buffer F with 5 mM DTT, and transferred to a 384-well assay plate. Next, Fluorescein-D22, LXR alpha or beta LBD-GST, and Tb anti-GST antibody was sequentially added to 384-well assay plate. The plate was then incubated at rt for 2.5 hours while being protected from light. […] The IC50 values were determined using a four-parameter logistic equation over a 12-point response curve (GraphPad Prism).

[2] = target: T2, LXR beta (Homo sapiens, UniProt P55055); test: LanthaScreen TR-FRET LXR beta Coactivator Assay (cell-free binding)
T2 construct: LXR alpha or beta LBD-GST; purchased ThermoFisher PV4658
T2 sequence (P55055 222-460 limits assumed): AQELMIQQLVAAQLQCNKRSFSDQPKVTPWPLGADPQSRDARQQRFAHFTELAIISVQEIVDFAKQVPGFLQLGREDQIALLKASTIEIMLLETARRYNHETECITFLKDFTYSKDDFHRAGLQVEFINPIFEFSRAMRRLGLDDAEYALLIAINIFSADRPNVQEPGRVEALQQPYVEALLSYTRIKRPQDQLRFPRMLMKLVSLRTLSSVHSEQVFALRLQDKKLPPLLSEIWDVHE
Experimental: as §1

[3] = test system: THP1/LXR-Luc cells; test: THP1/LXR-Luc luciferase reporter bioassay; assay type: cell-based; settings: Homo sapiens, THP-1, 48 hours; for EC50: read-out: Activation of THP1/LXR-Luc cells: EC50; for Emax: relative to maximum activation of free payload 9d, read-out: Activation of THP1/LXR-Luc cells: Fold of activation
Text: The fold activation in the cell-based assays (as described in Example 68, below) was defined based on the maximum activation of the free payload 9d.
(§2) A bioassay was developed to assess the activity of LXR agonists after internalization of an agonist or of a ncADC into cells and binding to LXR, a nuclear receptor, using a commercially available LXR reporter (referred to as LXR-Luc) that contains the firefly luciferase gene under control by minimal CMV promoter and tandem repeats of the LXR transcriptional response element. For this assay, a THP1 cell line, which is a human monocytic leukaemia line, was engineered to express full length human Her2 (expressing amino acids M1 through V1255 of accession number NP_004439.2). The subsequent stable cell line was further transduced with a Cignal LXR Luc Reporter (Qiagen, Cat # CLS-7041L). The resulting stable cell line is referred to herein as THP1/Her2/LXR-Luc. The Her2 cell surface expression on THP1/Her2/LXR-Luc cell line was confirmed by FACS (data not shown).
Additionally, a THP1 cell line was transduced with a Cignal LXR Luc Reporter (Qiagen, Cat # CLS-7041L) without the addition of Her2. The resulting stable cell line is referred to herein as THP1/LXR-Luc. All of the antibodies used in the subsequent bioassays were assessed for their ability to internalize and release a payload on the bioassay cell line used.
(§3) This example assessed the ability of the LXR agonists provided herein, reference compounds, and anti-Her2 antibody-LXR ncADC to activate LXR. The samples were tested in the THP1/LXR-Luc/Her2 bioassay. For the assay, either THP1/LXR-Luc cells or THP1/LXR-Luc/Her2 cells were seeded onto white 96 well plates at 30,000 cells/well in media containing RPMI supplemented with 10% FBS and pencillin/streptomycin (complete media). Subsequently 3-fold serial dilutions of antibody drug conjugates, unconjugated antibodies, or free payloads were added to the cells at final concentration ranging from 100 nM to 0.01 nM. After 48-hour or 72-hour incubation, luciferase activity was determined after the addition of One-Glo™ reagent (Promega, Cat # E6130) to each well of cells. Relative light units (RLUs) were measured on a Victor luminometer (PerkinElmer) and the EC5o values were determined using a four-parameter logistic equation over a 10-point dose response curve (GraphPad Prism) (FIG. 15). The fold activation is calculated based on the maximum activation of the free payload 9d.

[4] = test system: THP1/LXR-Luc/Her2 cells; test: THP1/LXR-Luc/Her2 luciferase reporter bioassay; assay type: cell-based; settings: Homo sapiens
Text: as §2, §3

[5] = test system: ABCA1; test: ABCA1 mRNA induction in differentiated THP-1 macrophages (TaqMan); assay type: cell-based, human; settings: THP1 macrophages, 24-hour treatment; magnitude in words
Experimental: (§4) To determine the ability of LXR agonists to activate ABCA1 and ABCG1 genes, the mRNA levels of these two genes in differentiated macrophages was measured. […] Cells were differentiated into macrophages by treatment with 100 nM Phorbol-12 myristate 13-acetate (Sigma, # P8139), which was added to the media described above, for 72 hours. […] Chloroform was then used for phase separation. The aqueous phase, containing total RNA, was purified using MagMAX™-96 for Microarrays Total RNA Isolation Kit (Ambion, Cat # AM1830) and reverse-transcribed into cDNA using SuperScript® VILO™ Master Mix (Invitrogen, Cat #11755050) as per the manufacturer's instructions. TaqMan® was performed using Gene Expression Master Mix, the ABI 7900HT Sequence Detection System (Applied Biosystems) and the primers and probes indicated below in Table 9. The GAPDH gene was used as the internal control gene to normalize any cDNA input differences.

[6] = test system: ABCG1; test: ABCG1 mRNA induction in differentiated THP-1 macrophages (TaqMan); assay type: cell-based, human; settings: THP1 macrophages, 24-hour treatment; magnitude in words
Experimental: as §4

[7] = test system: THP1/LXR-Luc cells; test: LXR-luciferase reporter bioassay in PMA-differentiated THP1/LXR-Luc cells; assay type: cell-based, human; settings: for EC50: Homo sapiens, THP-1, 48 h, read-out: EC50; for S/N (signal to noise, ratio of RLU of standard one over RLU of standard eight): luciferase activity
Text: To test the efficacy of anti-MSR1 antibody-LXR conjugates in vitro, a cell-based LXR responsive luciferase reporter assay was developed. To generate the assay cell line, a LXR regulated luciferase reporter gene [Cignal Lenti LXR Reporter (luc) kit (Qiagen, Cat # CLS-001L)] was transduced into THP1 cells, and cells were selected for two weeks in puromycin. The lentivirus expresses the firefly luciferase gene under the control of a minimal CMV promoter and tandem repeats of the LXR transcriptional response element. The resulting cell line is referred to as THP1/LXR-Luc cells.
THP1/LXR-Luc cells were seeded onto 96 well plates at 40,000 cells/well in media containing RPMI supplemented with 10% FBS and pencillin/streptomycin and subsequently differentiated with 200 nM Phorbol Myristate Acetate (PMA) for 3 days. After the 3-day differentiation period, three-fold serial dilutions of antibody drug conjugates, unconjugated antibodies, or free payloads in fresh media were added to the cells at final concentration ranging from 100 nM to 0.01 nM. Media alone served as a blank control. Forty-eight hours later, luciferase activity was determined after the addition of One-Glo™ reagent (Promega, Cat # E6130) to each well. Relative light units (RLUs) were measured on a Victor luminometer (PerkinElmer) and EC50 values were determined using a four-parameter logistic equation over a 10-point dose response curve (GraphPad Prism). The signal to noise (S/N) was determined by calculating the ratio of RLU of standard one over RLU of standard eight for each of the unconjugated anti-MSR1 antibodies or free payloads. “LP #” represents a linker-payload for which the corresponding structures are provided elsewhere herein, and “P #” represents a payload for which the corresponding structures are provided elsewhere herein.

[8] = Water solubility and pH stability of phosphate analogs; assay type: physicochemical; settings: for Stability: pH as given in the value, 17c converted to 17b in the presence of methanol
Text: The phosphoric acid-analog 17a was obtained from the treatment of phenol 9g with diphosphoryl chloride 18. Compounds 17b and 17c were obtained from the acidic deprotection of 17a with TFA.

[9] = TR-FRET, 12-point curve, read-out: Cell free binding LXRα IC50
[10] = TR-FRET, 12-point curve, read-out: Cell free binding LXRβ IC50
[11] = THP-1, 48 h, 48-hour time point
[12] = THP-1, 48 h, 48 hours, unit inferred, values correspond to M
[13] = THP-1, 72 h, 72-hour time point
[14] = 48-hour time point, stimulation of THP1/Luc cells
[15] = PMA-differentiated THP1/LXR-Luc cells, 48 hours, luciferase activity (One-Glo), 10-point dose response 100 nM to 0.01 nM
[16] = PMA-differentiated THP1/LXR-Luc cells, 48 hours

C[C@]1(C(=O)NC(=O)[C@@]2(C)CCC[C@]3(C)c4cc(NC(=O)CN)ccc4CC[C@@H]23)CCC[C@]2(C)c3cc(O)ccc3CC[C@@H]12 [Compound 9h, (1S,4aS,10aR)-6-(2-Aminoacetamido)-N-((1S,4aS,10aR)-6-hydroxy-1,4a-dimethyl-1,2,3,4,4a,9,10,10a-octahydrophenanthrene-1-carbonyl)-1,4a-dimethyl-1,2,3,4,4a,9,10,10a-octahydrophenanthrene-1-carboxamide]
IC50 [1, 9]: < 1 nM
IC50 [2, 10]: < 1 nM
EC50 [3]: ≤ 1 nM
Emax [3]: > 75%
EC50 [4, 11]: 0.5 nM
EC50 [4, 12]: 0.5 nM
EC50 [4, 13]: 0.65 nM
EC50 ([4]; THP-1, 72 h, 72 hours): 0.65 nM
ABCA1 induction EC50 [5]: sub-picomolar
ABCG1 induction EC50 [6]: sub-picomolar

C[C@]1(C(=O)NC(=O)[C@@]2(C)CCC[C@]3(C)c4cc(NC(=O)[C@@H](N)CO)ccc4CC[C@@H]23)CCC[C@]2(C)c3cc(O)ccc3CC[C@@H]12 [Compound 9j, (1S,4aS,10aR)-6-((S)-2-Amino-3-hydroxypropanamido)-N-((1S,4aS,10aR)-6-hydroxy-1,4a-dimethyl-1,2,3,4,4a,9,10,10a-octahydrophenanthrene-1-carbonyl)-1,4a-dimethyl-1,2,3,4,4a,9,10,10a-octahydrophenanthrene-1-carboxamide]
IC50 [1, 9]: < 10 nM
IC50 [2, 10]: < 10 nM
EC50 [3]: ≤ 1 nM
Emax [3]: > 75%
EC50 [4, 11]: 0.39 nM
EC50 [4, 12]: 0.39 nM
EC50 [4, 13]: 0.47 nM
EC50 ([4]; THP-1, 72 h, 72 hours): 0.47 nM
EC50 [7, 14]: 0.37 to 2.09 nM
EC50 [7, 15]: 0.46 nM
S/N (signal to noise, ratio of RLU of standard one over RLU of standard eight) [7, 16]: 5.7

C[C@]1(C(=O)NC(=O)[C@@]2(C)CCC[C@]3(C)c4cc(NC(=O)[C@@H](N)CCC(=O)O)ccc4CC[C@@H]23)CCC[C@]2(C)c3cc(O)ccc3CC[C@@H]12 [Compound 9o, (4S)-4-Amino-4-{[(4bS,8S,8aR)-8-{[(1S,4aS,10aR)-6-hydroxy-1,4a-dimethyl-1,2,3,4,4a,9,10,10a-octahydrophenanthrene-1-carbonyl]carbamoyl}-4b,8-dimethyl-4b,5,6,7,8,8a,9,10-octahydrophenanthren-3-yl]carbamoyl}butanoic acid; Trifluoroacetic Acid Salt]
IC50 [1, 9]: 10 to 100 nM
IC50 [2, 10]: < 10 nM
EC50 [3]: ≤ 1 nM
Emax [3]: > 75%
EC50 [7, 14]: 0.37 to 2.09 nM
EC50 [7, 15]: 0.37 nM
S/N (signal to noise, ratio of RLU of standard one over RLU of standard eight) [7, 16]: 8.3

COP(=O)(O)Oc1ccc2c(c1)[C@@]1(C)CCC[C@](C)(C(=O)NC(=O)[C@@]3(C)CCC[C@]4(C)c5cc(N)ccc5CC[C@@H]34)[C@@H]1CC2 [Compound 17b, (4bS,8S,8aR)-8-((1S,4aS,10aR)-6-Amino-1,4a-dimethyl-1,2,3,4,4a,9,10,10a-octahydrophenanthrene-1-carbonylcarbamoyl)-4b,8-dimethyl-4b,5,6,7,8,8a,9,10-octahydrophenanthren-3-yl methyl hydrogen phosphate]
Stability [8]: stable at pH 5-8
IC50 [1]: 10 to 100 nM
IC50 [2]: < 10 nM
EC50 [3]: 10 to 100 nM
Emax [3]: > 75%

C[C@]1(C(=O)NC(=O)[C@@]2(C)CCC[C@]3(C)c4cc(OP(=O)(O)O)ccc4CC[C@@H]23)CCC[C@]2(C)c3cc(N)ccc3CC[C@@H]12 [Compound 17c, (4bS,8S,8aR)-8-((1S,4aS,10aR)-6-Amino-1,4a-dimethyl-1,2,3,4,4a,9,10,10a-octahydrophenanthrene-1-carbonylcarbamoyl)-4b,8-dimethyl-4b,5,6,7,8,8a,9,10-octahydrophenanthren-3-yl dihydrogen phosphate]
Stability [8]: not stable at pH 5
Solubility in water ([8]; under basic and neutral conditions): soluble in water
IC50 [1]: > 100 nM
IC50 [2]: < 10 nM
EC50 [3]: ≤ 1 nM
Emax [3]: > 75%
